Source: US6583248B1, “Polymerizable cyclodextrin derivatives” (American Dental Association Health Foundation, priority 1997, dated 2003)

Assay: Qualitative solubility tests (polarizing microscope, drop of liquid under cover glass)
Type: physicochemical
Source text: Qualitative solubility tests. A few granules of the βCD or MβCD were placed on a microscope slide, covered with a cover glass, and examined with a polarizing microscope while a drop of liquid was placed to flow under the cover glass. These liquids comprised solvents having a wide range of solubility parameters and a number of monomers that might be of interest in dental or industrial formulations.

subjective solubility in 1,3-glycerol dimethacrylate (1,3-glycerol dimethacrylate)	subjective solubility in benzyl methacrylate (benzyl methacrylate)	subjective solubility in hydroxyethyl methacrylate (hydroxyethyl methacrylate)	subjective solubility in methanol	subjective solubility in triethyleneglycol dimethacrylate (triethyleneglycol dimethacrylate)	subjective solubility in undiluted BIS-GMA (undiluted BIS-GMA)	subjective solubility in water	subjective solubility in ethylene glycol dimethyl ether (ethylene glycol dimethyl ether)	Molecule
slowly soluble	promptly soluble	promptly soluble	very rapidly soluble (miscible)	slowly soluble	very slowly soluble	practically insoluble	–	fully methacrylated beta-cyclodextrin [MβCD]
–	–	–	practically insoluble	–	–	very slowly and only slightly soluble	practically insoluble	OC[C@H]1O[C@@H]2O[C@H]3[C@H](O)[C@@H](O)[C@@H](O[C@H]4[C@H](O)[C@@H](O)[C@@H](O[C@H]5[C@H](O)[C@@H](O)[C@@H](O[C@H]6[C@H](O)[C@@H](O)[C@@H](O[C@H]7[C@H](O)[C@@H](O)[C@@H](O[C@H]8[C@H](O)[C@@H](O)[C@@H](O[C@H]1[C@H](O)[C@H]2O)O[C@@H]8CO)O[C@@H]7CO)O[C@@H]6CO)O[C@@H]5CO)O[C@@H]4CO)O[C@@H]3CO [βCD, beta-cyclodextrin, reference compound]
